Assay results from article PMC4792926, “G9a-mediated methylation of ERα links the PHF20/MOF histone acetyltransferase complex to hormonal gene expression” (Nature Communications, 2016).
One block for each compound: values may come before it. Ends that are not written are not given here.

How the values were obtained:
[1] = system: ERα target genes (GREB1, PR, TFF1); test: qPCR of E2-induced ERα target gene expression in MCF-7 cells; assay type: cell-based, human; conditions: for fold induction of GREB1, PR and TFF1: control (shCtrl) MCF-7, relative to untreated cells
Description: (§1) Human MCF-7, T-47D, U2OS and HEK293T cells (ATCC) were cultured in DMEM (Cellgro) supplemented with 10% fetal bovine serum (FBS, Sigma). For G9a inhibitor treatment, BIX-01294 (Sigma) was added to the medium, at the indicated concentrations, 24 h before the cells were collected. For shRNA knockdown, 293T cells were co-transfected with pMD2.G and pPAX2 (Addgene) together with pLKO-shRNA constructs or a non-targeting pLKO-shRNA (pLKO-shCtrl). Viral supernatants were harvested after 48 h. For infections, MCF-7 or T-47D cells were incubated with viral supernatants in the presence of 8 μg ml^−1 polybrene. After 48 h, puromycin (2 μg ml^−1) was added to the DMEM. Cells were grown, with selection for 5–7 days to select for stable knockdown cells before oestrogen treatment. For oestrogen treatment, cells were starved in phenol red-free DMEM supplemented with 10% charcoal-stripped FBS (Sigma) for 3–4 days, and 10 nM 17β-estradiol (Sigma) or ethanol (vehicle) were added to the medium (3 or 6 h for gene expression studies, and 15 and 45 min for ChIP experiments) before the cells were collected.
(§2) Reverse transcription and real-time PCR were performed as described previously. mRNA was prepared using the RNeasy Plus kit (Qiagen) and reverse transcribed using the First Strand Synthesis kit (Invitrogen). Quantitative real-time RT–PCR (qPCR) was performed on an ABI 7500-FAST Sequence Detection System using the Power SYBR Green PCR Master Mix (Applied Biosystems). Gene expression was calculated following normalization to GAPDH levels using the comparative Ct (cycle threshold) method and is shown as ‘Fold' relative to the expression of each gene in the control cells without E2 treatment that was arbitrarily set as ‘1'. The primer sequences used for RT–PCR are listed in Supplementary Table 5.

[2] = system: ERα on GREB1 and PR promoters; test: ERα ChIP-qPCR in MCF-7 cells; assay type: cell-based, human; conditions: E2, 15 and 45 min
Description: as §1
ChIP analysis was performed essentially as described previously. Briefly, cells were crosslinked with 1% formaldehyde for 10 min at room temperature, and the reaction was stopped with 125 mM glycine. Nuclei were isolated by resuspending the cells in swelling buffer containing 5 mM PIPES, pH 8.0, 85 mM KCl, 1% NP-40 and complete protease inhibitors for 20 min at 4 °C. The isolated nuclei were resuspended in nuclei lysis buffer (50 mM Tris, pH 8.0, 10 mM EDTA, 1% SDS) and sonicated using a Bioruptor Sonicator (Diagenode). Samples were immunoprecipitated with 2–4 μg of the appropriate antibodies overnight at 4 °C. Immunoprecipitates were washed twice with dialysis buffer (50 mM Tris pH 8.0, 2 mM EDTA, 0.2% Sarkosyl) and four times with IP wash buffer (100 mM Tris, pH 8.0, 500 mM LiCl, 1% NP-40 and 1% deoxycholic acid sodium salt). After reverse crosslinking was performed, the DNA was eluted and purified using a PCR purification kit (Qiagene). […]

[3] = system: ERα target genes (GREB1, PR, TFF1); test: qPCR of E2-induced ERα target gene expression in T-47D cells; assay type: cell-based, human; conditions: 10 nM E2, 3 or 6 h; G9a-depleted T-47D
Description: as §1, with “For oestrogen treatment, cells were starved in phenol red-free DMEM supplemented with 10% charcoal-stripped FBS (Sigma) for 3–4 days, and 10 nM 17β-estradiol (Sigma) or ethanol (vehicle) were added to the medium (3 or 6 h for gene expression studies, and 15 and 45 min for ChIP experiments) before the cells were collected.” left out
as §2, with “The primer sequences used for RT–PCR are listed in Supplementary Table 5.” left out

[4] = system: H4K16ac on ERα target gene promoters; test: Histone H4K16ac ChIP-qPCR in MCF-7 cells; assay type: cell-based, human
Description: as §1
ChIP analysis was performed essentially as described previously. Briefly, cells were crosslinked with 1% formaldehyde for 10 min at room temperature, and the reaction was stopped with 125 mM glycine. Nuclei were isolated by resuspending the cells in swelling buffer containing 5 mM PIPES, pH 8.0, 85 mM KCl, 1% NP-40 and complete protease inhibitors for 20 min at 4 °C. The isolated nuclei were resuspended in nuclei lysis buffer (50 mM Tris, pH 8.0, 10 mM EDTA, 1% SDS) and sonicated using a Bioruptor Sonicator (Diagenode). Samples were immunoprecipitated with 2–4 μg of the appropriate antibodies overnight at 4 °C. Immunoprecipitates were washed twice with dialysis buffer (50 mM Tris pH 8.0, 2 mM EDTA, 0.2% Sarkosyl) and four times with IP wash buffer (100 mM Tris, pH 8.0, 500 mM LiCl, 1% NP-40 and 1% deoxycholic acid sodium salt). After reverse crosslinking was performed, the DNA was eluted and purified using a PCR purification kit (Qiagene). The primer sequences used for ChIP analyses are listed in Supplementary Table 4.

MCF-7 cells = test: RNA-seq in MCF-7 cells ±E2; assay type: cell-based, human; conditions: 10 nM E2, 3 h
Description: as §1, with “For oestrogen treatment, cells were starved in phenol red-free DMEM supplemented with 10% charcoal-stripped FBS (Sigma) for 3–4 days, and 10 nM 17β-estradiol (Sigma) or ethanol (vehicle) were added to the medium (3 or 6 h for gene expression studies, and 15 and 45 min for ChIP experiments) before the cells were collected.” left out
RNA-seq samples were sequenced using the Illumina Hiseq 2000, and raw reads were mapped to the human reference genome (hg19) and transcriptome using the RNA-seq unified mapper. Read counts for each transcript were calculated using HTseq v0.6.1 using default parameters. […] For the PHF20 knockdown data set, the common dispersion and tag wise dispersion were calculated using the edgeR ‘estimateCommonDisp' and ‘estimateTagwise-Disp' functions, respectively. […]

ERαK235me2 = test: Immunofluorescence of ERαK235me2 in MCF-7 cells; assay type: cell-based, human; conditions: 10 nM 17β-estradiol, 45 min; E2-deprived MCF-7
Description: MCF-7 cells were E2-depleted for 3 days and treated with 10 nM 17β-estradiol or ethanol for 45 min. Cells were then fixed in 4% formaldehyde, washed and permeabilized in 0.5% Triton X-100 on ice for 10 min. Cells were then blocked in 3% BSA, incubated with primary antibodies in 3% BSA for 2 h, washed, and probed with fluorescein-conjugated secondary antibodies in 3% BSA for 1 h. Cells on the slide were then washed, covered with mounting medium (with DAPI) and observed using an Olympus confocal microscope FluoView FV1000.
(d) ERαK235, but not K303, is required for the coactivator function of G9a in an estrogen response element- (ERE) driven luciferase assay. U2OS cells were cotransfected with G9a, NCOA2 and ERα (WT, K235R, or K303R) together with an ERE-Firefly luciferase and a Renilla luciferase, and the luciferase activity was determined 24 hrs after E2 treatment.
(e) G9a has a catalytic activity-dependent and independent coactivator activity of ERα. U2OS cells were cotransfected with ERα, NCOA2 and […] (WT or H1113K) together with an ERE-Firefly luciferase and a Renilla luciferase, and the luciferase activity was determined as described in the Method section.
(f) Both the E2-dependent and E2-independent ERα coactivator functions of G9a require the ERαK235 residue. […]

S. pombe SPF30 Tudor = test: Chromatin-associated domain array (CADOR 5.0), SPF30 Tudor; assay type: binding; conditions: biotinylated peptide on CADOR 5.0; K235 methylation-dependent
Description: (§3) For peptide pulldown assays, 1 μg of biotinylated histone and ERα peptides with or without methylation were incubated with 1 μg GST-PHF20 Tudor in binding buffer (50 mM Tris-HCl, pH 7.5, 300 mM NaCl, 0.1% NP-40 and 1 mM PMSF) for overnight. Streptavidin beads (GE Healthcare) were added into the mixture and incubated for 1 h with rotation. The beads were then washed three times, and analysed by SDS−PAGE and western blotting. For the protein domain array, the CADOR 5.0 protein domain array was probed with biotinylated ER peptides as described previously. The protein domains spotted on the CADOR 5.0 array are listed in the Supplementary Fig. 5. […]
(§4) Recombinat Proteins Construct Sources a - Cheryl Arrowsmith d - Jiemin W ong g - Albert Jeltsch j - Judd Rice n - Alla Grishok b - Subhashini Sadasivem e - Or Gozani h - Yi Zhang k - Marc Timmers o - Olli Silvennoinen c - Jocelyn Coté f - Thomas Jenuwein i - Adrian Bird l - Michelle Barton p - Logan Donaldson […]
(§5) Supplementary Figure 5. Domain layout of the Chromatin-Associated Domain Array […]
(§6) (1 picture or pasted object on this page, not shown here)

53BP1 Tudor = test: Chromatin-associated domain array (CADOR 5.0), 53BP1 Tudor; assay type: binding; conditions: biotinylated peptide on CADOR 5.0; K235 methylation-dependent
Description: as §3, §4, §5, §6

[5] = system: PHF20/PHF20L Tudor domains; test: Chromatin-associated domain array (CADOR 5.0), PHF20/PHF20L Tudors; assay type: binding; conditions: biotinylated peptide on CADOR 5.0; K235 methylation-dependent
Description: as §3, §4, §5, §6

PHF20 Tudor [6] = test: Peptide pull-down with GST-PHF20 Tudor; assay type: binding, human; conditions: 1 μg biotinylated peptide, 1 μg GST-PHF20 Tudor, 50 mM Tris-HCl pH 7.5, 300 mM NaCl, 0.1% NP-40, overnight
Description: (§7) The pGEX constructs encoding human G9a, ERα and ERα fragments including AF1 (aa 1–190), DBD (aa 175–250), hinge (aa 251–310), DBD+hinge (aa 175–310), LBD (aa 305–596) and the second Tudor domain of PHF20 (aa 58–148) were expressed in E. coli Rosetta (DE3) pLysS cells. After induction with IPTG (0.5 mM) for 16–18 h at 18 °C, cells were collected by centrifugation at 5,000g, lysed by sonication and purified using Glutathione Sepharose 4B beads (GE Healthcare). For the NMR titration assays, PHF20 Tudor was expressed in the ^15NH4Cl-supplemented (Sigma) minimal media, and the GST tag was cleaved with PreScission protease, and the cleaved protein was concentrated using Millipore concentrators (Millipore).
(§8) For peptide pulldown assays, 1 μg of biotinylated histone and ERα peptides with or without methylation were incubated with 1 μg GST-PHF20 Tudor in binding buffer (50 mM Tris-HCl, pH 7.5, 300 mM NaCl, 0.1% NP-40 and 1 mM PMSF) for overnight. Streptavidin beads (GE Healthcare) were added into the mixture and incubated for 1 h with rotation. The beads were then washed three times, and analysed by SDS−PAGE and western blotting. For the protein domain array, the CADOR 5.0 protein domain array was probed with biotinylated ER peptides as described previously. The protein domains spotted on the CADOR 5.0 array are listed in the Supplementary Fig. 5.

PHF20 Tudor [7] = test: 1H,15N HSQC NMR titration of PHF20 Tudor; assay type: binding, human
Description: as §7
The ^1H,^15N HSQC spectra of 0.2 mM uniformly ^15N-labelled PHF20 Tudor (in 25 mM Tris-HCl, pH 7.5 buffer, 150 mM NaCl, 5 mM dithiothreitol and ∼8% D2O) were collected at 298 K on a Varian INOVA 600 MHz spectrometer. Binding was monitored by titrating unmodified ERα and ERαK235me2 peptides (aa 228–239) against the PHF20 Tudor domain. NMR data were processed and analysed with NMRPipe and NMRDraw as previously described. NMR assignments for PHF20 Tudor were taken from the Biological Magnetic Resonance Data Bank (BMRB 17673)[31].

[8] = system: PHF20 Tudor W97A and Y103A mutants; test: Peptide pull-down with PHF20 Tudor mutants; assay type: binding, human; conditions: W97A and Y103A mutants of PHF20 Tudor
Description: as §7, §8

Compound: C[C@]12CC[C@@H]3c4ccc(O)cc4CC[C@H]3[C@@H]1CC[C@@H]2O [E2, 17β-estradiol]
- E2-induced activation of GREB1 and PR on PHF20 depletion ([1]; 10 nM E2, 3 or 6 h, PHF20 knockdown MCF-7): drastically decreased
- fold induction of GREB1, PR and TFF1 ([1]; 10 nM E2, 3 h): ~4 fold
- fold induction of GREB1, PR and TFF1 ([1]; 10 nM E2, 6 h): ~6 fold
- levels of ERα on GREB1 and PR promoters ([2]; G9a-depleted MCF-7): markedly reduced
- ERα occupancy on the promoters of GREB1 and PR ([2]; PHF20 knockdown MCF-7): no or minimal ERα occupancy was detected
- ERα on the promoters of GREB1 and PR ([2]; control MCF-7): E2-dependent increase of ERα on the promoters of GREB1 and PR
- E2-induced gene activation on G9a depletion [3]: drastically decreased
- E2-dependent H4K16ac and ERα on GREB1 and PR promoters (H4K16ac) ([4]; E2, 15 and 45 min, G9a-depleted MCF-7): markedly reduced
- E2-dependent increase of H4K16ac on GREB1 and PR promoters ([4]; E2, 15 and 45 min, PHF20-depleted MCF-7): greatly diminished
- H4K16ac levels on GREB1 and PR promoters ([4]; E2, 15 and 45 min, control MCF-7): dramatic increase in H4K16ac levels
- H4K16ac on genes not regulated by PHF20 ([4]; E2, MCF-7): no apparent H4K16ac signals were detected
- number of E2-activated genes (MCF-7 cells): 774 genes
- ERαK235me2 level (ERαK235me2): increased upon E2 stimulation

Compound: ERα peptide (aa 227–244) bearing dimethylated K235: ERα peptide (aa 227–244) bearing dimethylated K235, biotinylated, used to probe the CADOR array (CTIDKNRRK(Me2)SCQACRLRK; cysteine pairing not given here; also: biotin, end not given here)
- recognition by S. pombe SPF30 Tudor (S. pombe SPF30 Tudor): recognized the ERα peptide in a K235 methylation-dependent manner
- recognition by 53BP1 Tudor (53BP1 Tudor): recognized the ERα peptide in a K235 methylation-dependent manner
- recognition by PHF20/PHF20L Tudor [5]: recognized the ERα peptide in a K235 methylation-dependent manner

- binding to PHF20 Tudor W97/Y103 mutants (pull-down) [8]: abolished the binding
Compound: ERαK235me2 peptide: ERα peptide dimethylated at K235; aa 228–239 in NMR titrations, biotinylated in pull-downs (TIDKNRRK(Me2)SCQA; also: biotinylated in pull-downs, end not given here; UniProt P03372 228-239, looked up, fragment)
- interaction with PHF20 Tudor (pull-down) (PHF20 Tudor [6]): strong interaction
- chemical shift changes of PHF20 Tudor (PHF20 Tudor [7]; 0.2 mM 15N-labelled PHF20 Tudor, 25 mM Tris-HCl pH 7.5, 150 mM NaCl, 298 K, 600 MHz): large chemical shift changes
- backbone amide resonances A95, W97, Y103, A105, V118, F120, D122-Q126 of PHF20 Tudor (PHF20 Tudor [7]; HSQC titration, 0.2 mM PHF20 Tudor, pH 7.5, 298 K): significant shifting and broadening
